Measurements published in patent EP4549575A1 (priority 2023, dated 2025).
“Also recorded” adds a separate entry of the source. Square brackets hold non-standard residues; d marks the D form. Peptide text beside a SMILES is read from it. βAla = NCCC(=O)O

System: P. infestans
Test: not given
Type: cell-based
Conditions: Ala-scan of Ac-LP20 and CP20-Met-Ala; P. infestans mycelium in vitro

Question: Which “PPI (%) mycelium” value does the source give for `CSCC[C@H](NC(=O)[C@H](Cc1c[nH]c2ccccc12)NC(=O)[C@H](CCCNC(=N)N)NC(=O)CCNC(C)=O)C(=O)N[C@@H](CC(C)C)C(=O)N[C@H](C(=O)N[C@@H](Cc1ccc(O)cc1)C(=O)N[C@@H](C)C(=O)N[C@@H](CCCNC(=N)N)C(N)=O)C(C)C` [Ac-LP20-Ala8, Ac-βA-RWMLVYAR-CONH2] (Ac-[βAla]RWMLVYAR-NH2) here?
Answer: Its value is 10.57 ± 9.49%.

Question: `CSCC[C@H](NC(=O)[C@H](Cc1c[nH]c2ccccc12)NC(=O)[C@H](CCCNC(=N)N)NC(=O)CCNC(C)=O)C(=O)N[C@@H](CC(C)C)C(=O)N[C@H](C(=O)N[C@@H](Cc1ccc(O)cc1)C(=O)N[C@@H](CCCNC(=N)N)C(=O)N[C@@H](C)C(N)=O)C(C)C` [Ac-LP20-Ala9, Ac-βA-RWMLVYRA-CONH2] (Ac-[βAla]RWMLVYRA-NH2) was tested. Which “PPI (%) mycelium” value did it give?
Answer: Its value is 10.57 ± 9.49%.

Same assay, conditions: Ala-scan of Ac-LP32; P. infestans mycelium in vitro

Question: `CC(=O)NCCC(=O)N[C@@H](C)C(=O)N[C@@H](CCCNC(=N)N)C(=O)N[C@@H](CC(C)C)C(=O)N[C@@H](CCCNC(=N)N)C(=O)N[C@@H](Cc1c[nH]c2ccccc12)C(=O)N[C@@H](CC(C)C)C(=O)N[C@@H](CCCNC(=N)N)C(=O)N[C@H](C(N)=O)C(C)C` [Ac-LP32-Ala2, Ac-βA-ARLRWLRV-CONH2] (Ac-[βAla]ARLRWLRV-NH2) was tested. Which “PPI (%) micelio” value did it give?
Answer: The value was 74.81 ± 3.63%.

Question: `CC(=O)NCCC(=O)NCC(=O)N[C@@H](C)C(=O)N[C@@H](CC(C)C)C(=O)N[C@@H](CCCNC(=N)N)C(=O)N[C@@H](Cc1c[nH]c2ccccc12)C(=O)N[C@@H](CC(C)C)C(=O)N[C@@H](CCCNC(=N)N)C(=O)N[C@H](C(N)=O)C(C)C` [Ac-LP32-Ala3, Ac-βA-GALRWLRV-CONH2] (Ac-[βAla]GALRWLRV-NH2) was tested. Which “PPI (%) micelio” value did it give?
Answer: Its value is 58.78 ± 3.94%.

Question: Which “PPI (%) micelio” value does the source give for `CC(=O)NCCC(=O)NCC(=O)N[C@@H](CCCNC(=N)N)C(=O)N[C@@H](C)C(=O)N[C@@H](CCCNC(=N)N)C(=O)N[C@@H](Cc1c[nH]c2ccccc12)C(=O)N[C@@H](CC(C)C)C(=O)N[C@@H](CCCNC(=N)N)C(=O)N[C@H](C(N)=O)C(C)C` [Ac-LP32-Ala4, Ac-βA-GRARWLRV-CONH2] (Ac-[βAla]GRARWLRV-NH2) here?
Answer: Its value is 56.49 ± 10.10%.

Question: `CC(=O)NCCC(=O)NCC(=O)N[C@@H](CCCNC(=N)N)C(=O)N[C@@H](CC(C)C)C(=O)N[C@@H](C)C(=O)N[C@@H](Cc1c[nH]c2ccccc12)C(=O)N[C@@H](CC(C)C)C(=O)N[C@@H](CCCNC(=N)N)C(=O)N[C@H](C(N)=O)C(C)C` [Ac-LP32-Ala5, Ac-βA-GRLAWLRV-CONH2] (Ac-[βAla]GRLAWLRV-NH2) was tested. Which “PPI (%) micelio” value did it give?
Answer: Its value is 40.46 ± 1.76%.

Question: With `CC(=O)NCCC(=O)NCC(=O)N[C@@H](CCCNC(=N)N)C(=O)N[C@@H](CC(C)C)C(=O)N[C@@H](CCCNC(=N)N)C(=O)N[C@@H](C)C(=O)N[C@@H](CC(C)C)C(=O)N[C@@H](CCCNC(=N)N)C(=O)N[C@H](C(N)=O)C(C)C` [Ac-LP32-Ala6, Ac-βA-GRLRALRV-CONH2] (Ac-[βAla]GRLRALRV-NH2) as the molecule, how does the “PPI (%) micelio” value read?
Answer: The value was 54.20 ± 4.31%.

Question: With `CC(=O)NCCC(=O)NCC(=O)N[C@@H](CCCNC(=N)N)C(=O)N[C@@H](CC(C)C)C(=O)N[C@@H](CCCNC(=N)N)C(=O)N[C@@H](Cc1c[nH]c2ccccc12)C(=O)N[C@@H](C)C(=O)N[C@@H](CCCNC(=N)N)C(=O)N[C@H](C(N)=O)C(C)C` [Ac-LP32-Ala7, Ac-βA-GRLRWARV-CONH2] (Ac-[βAla]GRLRWARV-NH2) as the molecule, how does the “PPI (%) micelio” value read?
Answer: The value was 59.29 ± 7.05%.

Question: How did the “PPI (%) micelio” value turn out when `CC(=O)NCCC(=O)NCC(=O)N[C@@H](CCCNC(=N)N)C(=O)N[C@@H](CC(C)C)C(=O)N[C@@H](CCCNC(=N)N)C(=O)N[C@@H](Cc1c[nH]c2ccccc12)C(=O)N[C@@H](CC(C)C)C(=O)N[C@@H](C)C(=O)N[C@H](C(N)=O)C(C)C` [Ac-LP32-Ala8, Ac-βA-GRLRWLAV-CONH2] (Ac-[βAla]GRLRWLAV-NH2) was run?
Answer: The value was 17.56 ± 7.48%.

Question: Which “PPI (%) micelio” value does the source give for `CC(=O)NCCC(=O)NCC(=O)N[C@@H](CCCNC(=N)N)C(=O)N[C@@H](CC(C)C)C(=O)N[C@@H](CCCNC(=N)N)C(=O)N[C@@H](Cc1c[nH]c2ccccc12)C(=O)N[C@@H](CC(C)C)C(=O)N[C@@H](CCCNC(=N)N)C(=O)N[C@@H](C)C(N)=O` [Ac-LP32-Ala9, Ac-βA-GRLRWLRA-CONH2] (Ac-[βAla]GRLRWLRA-NH2) here?
Answer: The value was 19.85 ± 2.92%.

System: pronase
Test: pronase (commercially available mixture of proteases isolated from the extracellular fluid of Streptomyces griseus, 2.5 µg/mg) in buffer solution (50 mM Tris, 10 mM CaCl2, 150 mM NaCl, 0.05 % (w/v) Br)
Conditions: 37°C, up to 2 h

Question: How did the cleaved bond turn out when Ac-[βAla]GRLRWLRV-NH2 was run?
Answer: The cleaved bond was “Trp-Leu7, 10 minutes later; also recorded: Leu4-Arg5, 10 min; also recorded: Arg5-Trp, 10 min; also recorded: Leu7-Arg8, 10 min; also recorded: Arg8-Val, 10 min”.

Question: Which cleaved bond does the source give for Ac-[βAla]RWMLVYRR-NH2 here?
Answer: The cleaved bond was “Met4-Leu, first_seen, t0; also recorded: Arg2-Trp3, 10 min; also recorded: Trp3-Met4, 10 min”.
